Results taken from patent publication US5258371A, “Method to reduce connective tissue destruction” (Kuraray Co., Ltd., priority 1992, dated 1993).
Values belong to the compound of their own block, whether it stands above or below them.

Tests used:
collagenase [1] = molecular target: T1, collagenase (Oryctolagus cuniculus, UniProt P13943); assay: Collagenase inhibition test (in vitro), decomposition of FITC-labelled collagen; type: biochemical, Japanese white rabbit; conditions: for IC50: collagenase from IL-1-stimulated rabbit chondrocyte culture supernatant, trypsin-activated, 35° C., 5% DMSO, read-out: Concentration of Drug Showing 50% Inhibition, IC50; for anti-collagenase activity (in words): refers to Test Example; for collagenase inhibition activity as a multiple of that of DMAT: relative to DMAT (control), from Table 1
T1 construct: endogenous in cells; host or cells: primary knee articular chondrocytes of Japanese white rabbit, stimulated with human recombinant interleukin-1 ('Interleukin-1a' in the source); culture supernatant
T1 sequence (P13943 99-468): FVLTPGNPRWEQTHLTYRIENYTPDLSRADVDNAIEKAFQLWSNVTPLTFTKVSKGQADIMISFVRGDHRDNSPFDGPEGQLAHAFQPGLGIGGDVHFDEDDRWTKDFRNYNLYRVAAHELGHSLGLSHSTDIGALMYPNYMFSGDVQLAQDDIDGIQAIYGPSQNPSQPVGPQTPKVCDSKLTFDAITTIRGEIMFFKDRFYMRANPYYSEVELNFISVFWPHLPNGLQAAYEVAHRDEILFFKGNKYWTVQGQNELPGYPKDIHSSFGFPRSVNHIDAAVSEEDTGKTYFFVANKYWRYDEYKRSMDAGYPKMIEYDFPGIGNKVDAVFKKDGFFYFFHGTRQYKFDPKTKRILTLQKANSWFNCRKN
Method: The tetracycline derivatives used in the present invention were tested for collagenase inhibition (in vitro), and for suppression of destruction of articular cartilage using rabbit osteoarthritis models (in vivo).
The knee articular cartilage of a Japanese white rabbit (4 weeks old) was aseptically taken out. The cartilage cells (chondrocytes) were separated according to the method of S. Collier et al [Ann. Rheum. […] In 30 ml of Ham's F12 culture medium (containing 10% fetal bovine serum) 4×10^6 cartilage cells were suspended and the medium was incubated at 37° C. in a 150 cm^2 incubation flask (made by Iwaki Glass Co., Japan) and under an air atmosphere containing 5% carbon dioxide. The medium was replaced every 3 to 4 days. When the cells propagated to the state of confluence (7 to 9 days after the start of incubation), the medium was replaced by Ham's F12 serum-free culture medium (30 units/ml of human recombinant Interleukin-1a made by Genzyme Co., USA) and 0.4% lactalbumin hydrolysate (made by Sigma Co., USA) and incubation was conducted for 4 days. The culture supernatant was taken and used as the collagenase solution to be tested.
The collagenase activity was expressed based on the decomposition of 1 μg of collagen at 35° C. in 1 minute being equal to 1 unit.
A solution of a drug to be tested was dissolved in dimethyl sulfoxide (DMSO), then was added to the collagenase assay solution. The final concentration of DMSO is 5%. The inhibition ratio of the drug was calculated based on the collagen decomposition activity without its addition being 100%.

collagenase [2] = conditions: J. Dent. Res., 66, 1310 (1987) and others; cited from earlier work
[3] = compared to tetracyclines; cited from earlier work
bone resorption = conditions: J. Dent. Res., 66, 1310 (1987) and others; cited from earlier work
collagenase [4] = conditions: periodontal diseases; J. Periodontal Res., 18, 516 (1983); cited from earlier work
rheumatoid arthritis = rheumatoid arthritis patients; J. Rheumatol., 17, 43 (1990); cited from earlier work
[5] = tested on: articular cartilage in rabbit osteoarthritis models; assay: Test for suppression of destruction of articular cartilage using rabbit osteoarthritis models (partial lateral meniscectomy); type: in vivo, New Zealand white rabbit
Method: The tetracycline derivatives used in the present invention were tested for collagenase inhibition (in vitro), and for suppression of destruction of articular cartilage using rabbit osteoarthritis models (in vivo). The tetracycline derivatives tested were the mixture of DODMAT-2 and DODMAT-3 obtained in Synthesis Example 1 (hereinafter this mixture is referred to as "DODMAT mixture" and DOTC (mixture of isomers) obtained in Synthesis Example 2. DMAT was used as control.
The rabbit osteoarthritis models were made by the partial lateral meniscectomy procedure according to the method of C. Colombo et al [Arthritis Rheum., 26, 875 (1983)]. Adult male New Zealand white rabbits weighing approximately 3 kg each were used. The animals were anesthetized by intramuscular injection of 40 mg/kg Ketamine and 1.6 mg/kg Xylazine before surgery. The surgery was conducted as follows; the right knee was opened laterally, the fibular collateral ligament was exposed and 3-4 mm were removed. Subsequently, 3-4 mm of the sesamoid ligament were removed, followed by removal of 4-5 mm of the anterior lateral area of the exposed meniscus. The capsule and skin were then sutured. Following surgery, each animal daily received intramuscular injection of 2 mg/kg/day Dibekacin sulfate for a week to be protected from infection. The animals were sustained on standard rabbit pellets and tap water ad libitum during experiment.
The test drug (DODMAT mixture) or vehicle began 1 week post-surgery and continued every 7 days per week for 5 weeks. DODMAT, suspended in a vehicle aqueous solution containing 1% methyl cellulose, 0.8% sodium chloride, and 0.1% polysorbate 80, was administered orally by gavage. […] The histologic slides were coded and evaluated blind for 11 parameters, which are set forth in Table 2, using a scoring system of +1 to +4 for each type of abnormality as described by C. […] The data were analyzed by the one-sided Wilcoxon rank sum method.

Compound: 12a-deoxytetracycline [DOTC]
- IC50 (collagenase [1]): 22 µM
- anti-collagenase activity (in words) (collagenase [1]): excellent anti-collagenase activity
- collagenase inhibition activity as a multiple of that of DMAT (collagenase [1]): at least 10 times

Compound: C[C@@]1(O)c2cccc(O)c2C(=O)C2=C(O)[C@]3(O)C(=O)C(C(N)=O)=C(O)CC3CC21 (stereo partly drawn) [DMAT, 4-dedimethylaminotetracycline]
- collagenase inhibition compared to tetracyclines (in words) (collagenase [2]): compares favorably to tetracyclines with respect to collagenase inhibition
- antibacterial activity (in words) [3]: without the same antibacterial activity
- IC50 (collagenase [1]): 300 µM
- suppression of bone resorption compared to tetracyclines (in words) (bone resorption): compares favorably to tetracyclines with respect to collagenase inhibition, suppression of bone resorption

Compound: CN(C)c1ccc(O)c2c1C[C@H]1C[C@H]3[C@H](N(C)C)C(O)=C(C(N)=O)C(=O)[C@@]3(O)C(O)=C1C2=O [minocycline]
- anti-collagenolytic activity (in words) (collagenase [4]): anti-collagenolytic activity
- time after start of administration at which appreciable effects were observed (rheumatoid arthritis): 4 months

- IC50 (collagenase [1]): 2.5 µM
- anti-collagenase activity (in words) (collagenase [1]): excellent anti-collagenase activity
- collagenase inhibition activity as a multiple of that of DMAT (collagenase [1]): at least 10 times
Compound: 4-dedimethylamino-12a-deoxytetracycline [DODMAT mixture]
- Mean score of cartilage lesions ± S.E. ([5]; 15 mg/kg/day orally by gavage, 5 weeks from 1 week post-surgery, 9 animals, p < 0.05 (one-sided Wilcoxon rank sum), vehicle 46.6 ± 7.3 (7 animals)): 24.7 ± 3.3
- improvement resulting from treatment ([5]; cartilage lesion score versus vehicle, 15 mg/kg/day oral): at least 47%
- suppression of destruction of articular cartilages (in words) ([5]; rabbit osteoarthritis models): significant suppression of destruction of articular cartilages
